# Reference: US20040063580A1, “Bicyclic triazolone derivatives and a herbicides containing the same” (priority 2000, published 2004)
# Tests used:
# corn = assay: Post emergence test, phytotoxicity on the crop corn; type: in vivo; conditions: post emergence spray, evaluated two weeks after treatment
# Protocol: (§1) Herbicidal Effects Against Weeds (Post Emergence)
# (§2) After filling 300 g field soil in jiffypot™ having diameter of 10 cm, the soil was steam sterilized. Seeds of velvetleaf, redroot pigweed, tall morningglory and corn onto the surface of the soil were scattered, and then covered with the soil to a thickness of 0.5 cm for the weed, 1 cm for the crop. When the weed and the crop reached the designated growth stage, they were treated with the compound to be tested.
# (§3) Preparation of the Test Solution and the Method of Treatment
# (§4) The compound to be tested was dissolved in acetone which contain Tween 20™ and diluted with deionized water to prepare the test solution for 10 g/a and 1 g/a use. The test solution was sprayed on the pots in a device for spraying using spraygun.
# (§5) Method of Indicating the Effect and Phytotoxicity
# (§6) The effect of the compound tested on the weeds and phytotoxicity on the crops were evaluated two weeks after treatment with the compound as 6 grades from 0 to 5 shown in the Table 9 and 10.
# The phytotoxicity was indicated by the following evaluation index.
# velvetleaf = assay: Herbicidal effects against weeds (post emergence), velvetleaf; type: in vivo; conditions: post emergence spray, evaluated two weeks after treatment
# Protocol: as §1, §2, §3, §4, §5, §6
# (§7) In the Table 11 and 12, the herbicidal effects were indicated by the following evaluation index.
# redroot pigweed = assay: Herbicidal effects against weeds (post emergence), redroot pigweed; type: in vivo; conditions: post emergence spray, evaluated two weeks after treatment
# Protocol: as §1, §2, §3, §4, §5, §6, §7
SMILES,melting point,Evaluation index Corn (phytotoxicity) (corn; 1 g/a),Evaluation index Corn (phytotoxicity) (corn; 10 g/a),Evaluation index Velvet leaf (velvetleaf; 1 g/a),Evaluation index Velvet leaf (velvetleaf; 10 g/a),Evaluation index Redroot pigweed (redroot pigweed; 1 g/a),Evaluation index Redroot pigweed (redroot pigweed; 10 g/a)
"C#CCOc1cc(-n2nc3c(Cl)cc(Cl)cn3c2=O)c(F)cc1C#N [Compound No. A-49, 6,8-Dichloro-2-(4-cyano-2-fluoro-5-propargyloxyphenyl)-1,2,4-triazolo[4,3-a]pyridin-3(2H)-one]",145 to 147 °C,,,,,,
"CCS(=O)(=O)Nc1cc(-n2nc3n(c2=O)CCCN3C)c(F)cc1C#N [Compound No. F-2, 5,6,7,8-Tetrahydro-8-methyl-2-(4-cyano-5-ethylsulfonylamino-2-fluorophenyl)-[1,2,4]triazolo [4,3-a]pyrimidin-3(2H)-one]",,1 (small 0.1 to 12.5),3 (big 25.1 to 50.0),4 (maximum 87.6 to 99.9),5 (maximum *all dead) 100),5 (maximum *all dead) 100),5 (maximum *all dead) 100)
"CNS(=O)(=O)c1cc(-n2nc3ccc(Cl)cn3c2=O)c(F)cc1C#N [Compound No. A-21, 5-(6-Chloro-2,3-dihydro-3-oxo-1,2,4-triazolo[4,3-a]pyridin-2-yl)-2-cyano-4-fluoro-N-methylbenzenesulfonamide]",154 to 157 °C,,,,,,
"COc1cc(-n2nc3ccc(Cl)cn3c2=O)c(F)cc1Cl [Compound No. A-23, 6-Chloro-2-(4-chloro-2-fluoro-5-methoxyphenyl)-1,2,4-triazolo[4,3-a]pyridin-3(2H)-one]",140 to 142 °C,,,,,,
"COC(=O)C(Cl)Cc1cc(-n2nc3ccc(Cl)cn3c2=O)c(F)cc1Cl (centres unmarked) [Compound No. A-43, Methyl 2-chloro-3-[2-chloro-4-fluoro-5-(6-chloro-2,3-dihydro-3-oxo-1,2,4-triazolo[4,3-a]pyridin-2-yl)phenyl]propionate]",,0 (no effect 0),0 (no effect 0),5 (maximum *all dead) 100),5 (maximum *all dead) 100),5 (maximum *all dead) 100),5 (maximum *all dead) 100)
"C#CCOc1cc(-n2nc3n(c2=O)CCCN3)c(F)cc1Cl [Compound No. F-1, 5,6,7,8-Tetrahydro-2-(4-chloro-2-fluoro-5-propargyloxyphenyl)-[1,2,4]triazolo[4,3-a]pyrimidin-3(2H)-one]",172 to 174 °C,3 (big 25.1 to 50.0),3 (big 25.1 to 50.0),4 (maximum 87.6 to 99.9),5 (maximum *all dead) 100),5 (maximum *all dead) 100),5 (maximum *all dead) 100)
"CC(C)OC(=O)c1cc(-n2nc3ccc(Cl)cn3c2=O)c(F)cc1Cl [Compound No. A-33, Isopropyl 2-chloro-4-fluoro-5-(6-chloro-2,3-dihydro-3-oxo-1,2,4-triazolo[4,3-a]pyridin-2-yl)benzoate]",120 to 123 °C,,,,,,
"C#CCOc1cc(-n2nc3ccc(Cl)cn3c2=O)c(F)cc1C#N [Compound No. A-14, 6-Chloro-2-(4-cyano-2-fluoro-5-propargyloxyphenyl)-1,2,4-triazolo[4,3-a]pyridin-3(2H)-one]",209 to 211 °C,,,,,,
CCOC(=O)COc1cc(-n2nc3cc(C)ccn3c2=O)c(F)cc1Cl [A-55],,,,,4 (maximum 87.6 to 99.9),,5 (maximum *all dead) 100)
"CCOC(=O)C=Cc1cc(-n2nc3ccc(Cl)cn3c2=O)c(F)cc1Cl [A-42, Ethyl 2-chloro-4-fluoro-5-(6-chloro-2,3-dihydro-3-oxo-1,2,4-triazolo[4,3-a]pyridin-2-yl)cinnamate]",162 to 165 °C,,,,,,
CCS(=O)(=O)Nc1cc(-n2nc3n(c2=O)CC(C)S3)c(F)cc1C#N (centres unmarked) [C-4],,,,5 (maximum *all dead) 100),5 (maximum *all dead) 100),5 (maximum *all dead) 100),5 (maximum *all dead) 100)
"CCS(=O)(=O)Nc1cc(-n2nc3n(c2=O)CCS3)c(F)cc1C#N [Compound No. C-2, 5,6-Dihydro-2-(4-cyano-5-ethylsulfonylamino-2-fluorophenyl)thiazolo[2,3-c][1,2,4]triazol-3(2H)-one]",,0 (no effect 0),0 (no effect 0),5 (maximum *all dead) 100),5 (maximum *all dead) 100),5 (maximum *all dead) 100),5 (maximum *all dead) 100)
CCS(=O)(=O)Nc1cc(-n2nc3ccc(Br)cn3c2=O)ccc1C#N [A-45],,,,5 (maximum *all dead) 100),,5 (maximum *all dead) 100),
C=C(Cl)COc1cc(-n2nc3ccc(Cl)cn3c2=O)c(F)cc1Cl [A-61],,,,,4 (maximum 87.6 to 99.9),,5 (maximum *all dead) 100)
"CCC(=O)NS(=O)(=O)c1cc(-n2nc3ccc(Cl)cn3c2=O)c(F)cc1C#N [Compound No. A-20, 5-(6-Chloro-2,3-dihydro-3-oxo-1,2,4-triazolo[4,3-a]pyridin-2-yl)-2-cyano-4-fluoro-N-propionylbenzenesul fonamide]",190 to 194 °C,,,,,,
CC(C)S(=O)(=O)Nc1cc(-n2nc3ccc(Cl)cn3c2=O)c(F)cc1C#N [A-11],,,,,5 (maximum *all dead) 100),,5 (maximum *all dead) 100)
CC(C)S(=O)(=O)Nc1cc(-n2nc3ccc(Cl)cn3c2=O)c(F)cc1[N+](=O)[O-] [A-41],,,,5 (maximum *all dead) 100),5 (maximum *all dead) 100),5 (maximum *all dead) 100),5 (maximum *all dead) 100)
C=CCOc1cc(-n2nc3ccc(Cl)cn3c2=O)c(F)cc1Cl [Compound No. A-24],,,,4 (maximum 87.6 to 99.9),5 (maximum *all dead) 100),5 (maximum *all dead) 100),5 (maximum *all dead) 100)
CCC(=O)N(c1cc(-n2nc3ccc(Cl)cn3c2=O)c(F)cc1C#N)S(=O)(=O)CC [A-7],,,,,5 (maximum *all dead) 100),,5 (maximum *all dead) 100)
"C=CCOc1cc(-n2nc3ccc(Cl)cn3c2=O)c(F)cc1C#N [Compound No. A-13, 2-(5-Allyloxy-4-cyano-2-fluorophenyl)-6-chloro-1,2,4-triazolo[4,3-a]pyridin-3(2H)-one]",183 to 185 °C,,,,,,
"C#CCN(c1cc(-n2nc3ccc(Cl)cn3c2=O)c(F)cc1C#N)S(=O)(=O)CC [Compound No. A-5, 6-Chloro-2-[4-cyano-5-(N-ethanesulfonyl-N-propargylamino)-2-fluorophenyl]-1,2,4-triazolo[4,3-a]pyridin-3(2H)-one]",176 to 178 °C,,,,,,
C#CC(C)Oc1cc(-n2nc3ccc(Cl)cn3c2=O)c(F)cc1Cl (centres unmarked) [A-26],,,,5 (maximum *all dead) 100),5 (maximum *all dead) 100),5 (maximum *all dead) 100),5 (maximum *all dead) 100)
CCS(=O)(=O)N(C(=O)C(C)(C)C)c1cc(-n2nc3ccc(Cl)cn3c2=O)c(F)cc1C#N [A-8],,,,5 (maximum *all dead) 100),5 (maximum *all dead) 100),5 (maximum *all dead) 100),5 (maximum *all dead) 100)
CCCS(=O)(=O)Nc1cc(-n2nc3ccc(Cl)cn3c2=O)c(F)cc1[N+](=O)[O-] [A-40],,,,,5 (maximum *all dead) 100),,5 (maximum *all dead) 100)
"CC(C)c1sc(F)c(-n2nc3ccc(Cl)cn3c2=O)c1C#N [Compound No. A-18, 6-Chloro-2-(4-cyano-2-fluoro-5-isopropylthiophenyl)-1,2,4-triazolo[4,3-a]pyridin-3(2H)-one]",148 to 150 °C,,,,,,
CCOC(=O)C(C)Oc1cc(-n2nc3ccc(Cl)cn3c2=O)c(F)cc1Cl (centres unmarked) [A-28],,,,4 (maximum 87.6 to 99.9),5 (maximum *all dead) 100),5 (maximum *all dead) 100),5 (maximum *all dead) 100)
